Measurements: publication doi:10.1101/2024.08.19.608619, “Discovery of potent SARS-CoV-2 nsp3 macrodomain inhibitors uncovers lack of translation to cellular antiviral response” (bioRxiv, 2024)
In brackets after ≈: the same amount, converted by molar mass. Several values for one entry are separate records, joined by “and”; a condition that tells them apart may be missing. Equal entries are not always repeated.

Test system: SARS-CoV-2, isolate USA-WA1/2020
Assay: microbe, parasite or virus in culture
Format: cell-based
Conditions: HeLa-ACE2 SARS-CoV-2 antiviral effect without P-gp inhibitor; maximum measured response of dose series

For CC(C)[C@@H](Nc1ncnc2[nH]c(C(=O)N[C@H]3CCN(C)C3)cc12)c1ccc2c(c1)S(=O)(=O)CCC2 (single isomer, unassigned) [ASAP-0012336], which perc_max_measured is on record?
The perc_max_measured was 102.123%.

With Cc1ncc(-c2cc3c(N[C@@H](c4ccc5c(c4)OCCO5)C(C)C)ncnc3[nH]2)cn1 [ASAP-0008490] as the molecule, how does the perc_max_measured read?
The perc_max_measured was 95.537% and 100.014%.

Same assay, conditions: HeLa-ACE2 SARS-CoV-2 antiviral effect without P-gp inhibitor; minimum measured response of dose series

For CC(C)[C@@H](Nc1ncnc2[nH]c(C(=O)N[C@H]3CCN(C)C3)cc12)c1ccc2c(c1)S(=O)(=O)CCC2 (single isomer, unassigned) [ASAP-0012336], which perc_min_measured is on record?
The perc_min_measured was 84.181%.

Same assay, conditions: HeLa-ACE2 SARS-CoV-2 antiviral effect without P-gp inhibitor; read-out: ec50

For CC(C)[C@@H](Nc1ncnc2[nH]c(C(=O)N[C@H]3CCN(C)C3)cc12)c1ccc2c(c1)S(=O)(=O)CCC2 (single isomer, unassigned) [ASAP-0012336], which EC50 is on record?
Its EC50 is > 20 µM.

With Cc1ncc(-c2cc3c(N[C@@H](c4ccc5c(c4)OCCO5)C(C)C)ncnc3[nH]2)cn1 [ASAP-0008490] as the molecule, how does the EC50 read?
The EC50 was 4.51 µM.

Same assay, conditions: HeLa-ACE2 SARS-CoV-2 antiviral effect without P-gp inhibitor; read-out: ec90

For CC(C)[C@@H](Nc1ncnc2[nH]c(C(=O)N[C@H]3CCN(C)C3)cc12)c1ccc2c(c1)S(=O)(=O)CCC2 (single isomer, unassigned) [ASAP-0012336], which EC90 is on record?
The EC90 was > 20 µM.

With Cc1ncc(-c2cc3c(N[C@@H](c4ccc5c(c4)OCCO5)C(C)C)ncnc3[nH]2)cn1 [ASAP-0008490] as the molecule, how does the EC90 read?
Its EC90 is > 20 µM.

Test system: not listed separately
Assay: LogD
Conditions: pH 7.4; In vitro LogD

With CC(C)[C@@H](Nc1ncnc2[nH]c(C(=O)N[C@H]3CCN(C)C3)cc12)c1ccc2c(c1)S(=O)(=O)CCC2 (single isomer, unassigned) [ASAP-0012336] as the molecule, how does the logd read?
Its logd is 1.5.

Test system: not listed separately
Assay: in vitro
Conditions: human, hela-ace2 cells, 50.0

Which CC50 at 24 h does the source give for Cc1ncc(-c2cc3c(N[C@@H](c4ccc5c(c4)OCCO5)C(C)C)ncnc3[nH]2)cn1 [ASAP-0008490] here?
The CC50 at 24 h was > 20 µM.

Test system: SARS-CoV-2
Assay: Antiviral effect in iPSC-derived pneumocyte system
Format: cell-based
Conditions: iPSC pneumocytes SARS-CoV-2 antiviral effect

What does the source list for CC(C)[C@@H](Nc1ncnc2[nH]c(C(=O)N[C@H]3CCN(C)C3)cc12)c1ccc2c(c1)S(=O)(=O)CCC2 (single isomer, unassigned) [ASAP-0012336]?
EC50: > 50 µM; EC90: > 50 µM

What does the source list for Cc1ncc(-c2cc3c(N[C@@H](c4ccc5c(c4)OCCO5)C(C)C)ncnc3[nH]2)cn1 [ASAP-0008490]?
EC50: 15.7 µM; EC90: 36 µM

Same assay, conditions: iPSC pneumocytes SARS-CoV-2 antiviral effect; maximum measured response of dose series

For CC(C)[C@@H](Nc1ncnc2[nH]c(C(=O)N[C@H]3CCN(C)C3)cc12)c1ccc2c(c1)S(=O)(=O)CCC2 (single isomer, unassigned) [ASAP-0012336], which perc_max_measured is on record?
Its perc_max_measured is 114.501%.

For Cc1ncc(-c2cc3c(N[C@@H](c4ccc5c(c4)OCCO5)C(C)C)ncnc3[nH]2)cn1 [ASAP-0008490], which perc_max_measured is on record?
Its perc_max_measured is 160.084%.

Same assay, conditions: iPSC pneumocytes SARS-CoV-2 antiviral effect; minimum measured response of dose series

With CC(C)[C@@H](Nc1ncnc2[nH]c(C(=O)N[C@H]3CCN(C)C3)cc12)c1ccc2c(c1)S(=O)(=O)CCC2 (single isomer, unassigned) [ASAP-0012336] as the molecule, how does the perc_min_measured read?
Its perc_min_measured is 59.767%.

Which perc_min_measured does the source give for Cc1ncc(-c2cc3c(N[C@@H](c4ccc5c(c4)OCCO5)C(C)C)ncnc3[nH]2)cn1 [ASAP-0008490] here?
Its perc_min_measured is 9.251%.

Test system: not listed separately
Assay: Hepatic microsomal stability, HLM
Format: in vitro ADME, human
Conditions: In vitro human liver microsomal stability

With CC(C)[C@@H](Nc1ncnc2[nH]c(C(=O)N[C@H]3CCN(C)C3)cc12)c1ccc2c(c1)S(=O)(=O)CCC2 (single isomer, unassigned) [ASAP-0012336] as the molecule, how does the clint read?
Its clint is 26.0 µL/min/mg.

What about the perc_remaining of the same molecule?
Its perc_remaining is 66.0%.

And the t_half?
The t_half was 64.0 min.

Same assay, conditions: In vitro human liver microsomal stability; no cofactor

With CC(C)[C@@H](Nc1ncnc2[nH]c(C(=O)N[C@H]3CCN(C)C3)cc12)c1ccc2c(c1)S(=O)(=O)CCC2 (single isomer, unassigned) [ASAP-0012336] as the molecule, how does the perc_remaining_no_cofactor read?
The perc_remaining_no_cofactor was 107.0%.

Test system: not listed separately
Assay: Hepatic microsomal stability, MLM
Format: in vitro ADME
Conditions: In vitro mouse liver microsomal stability

For CC(C)[C@@H](Nc1ncnc2[nH]c(C(=O)N[C@H]3CCN(C)C3)cc12)c1ccc2c(c1)S(=O)(=O)CCC2 (single isomer, unassigned) [ASAP-0012336], which clint is on record?
The clint was 4.0 µL/min/mg.

And the perc_remaining?
Its perc_remaining is 92.0%.

And the t_half?
The t_half was 433.8 min.

Same assay, conditions: In vitro mouse liver microsomal stability, no cofactor

Which perc_remaining_no_cofactor does the source give for CC(C)[C@@H](Nc1ncnc2[nH]c(C(=O)N[C@H]3CCN(C)C3)cc12)c1ccc2c(c1)S(=O)(=O)CCC2 (single isomer, unassigned) [ASAP-0012336] here?
Its perc_remaining_no_cofactor is 92.0%.

Test system: not listed separately
Assay: Permeability Papp (AB) MDR1/MDCKII
Conditions: In vitro MDR1-MDCKII permeability, B to A, no inhibitor

For CC(C)[C@@H](Nc1ncnc2[nH]c(C(=O)N[C@H]3CCN(C)C3)cc12)c1ccc2c(c1)S(=O)(=O)CCC2 (single isomer, unassigned) [ASAP-0012336], which papp_b_to_a_mean is on record?
The papp_b_to_a_mean was 0.038 ×10⁻⁶ cm/s.

Same assay, conditions: In vitro MDR1-MDCKII permeability, no inhibitor

With CC(C)[C@@H](Nc1ncnc2[nH]c(C(=O)N[C@H]3CCN(C)C3)cc12)c1ccc2c(c1)S(=O)(=O)CCC2 (single isomer, unassigned) [ASAP-0012336] as the molecule, how does the efflux_ratio read?
The efflux_ratio was 0.5.

Same assay, conditions: In vitro MDR1-MDCKII permeability, recovery A to B, no inhibitor

For CC(C)[C@@H](Nc1ncnc2[nH]c(C(=O)N[C@H]3CCN(C)C3)cc12)c1ccc2c(c1)S(=O)(=O)CCC2 (single isomer, unassigned) [ASAP-0012336], which perc_recovery_a_to_b_mean is on record?
The perc_recovery_a_to_b_mean was 53.5% and 74.5%.

Same assay, conditions: In vitro MDR1-MDCKII permeability, recovery B to A, no inhibitor

With CC(C)[C@@H](Nc1ncnc2[nH]c(C(=O)N[C@H]3CCN(C)C3)cc12)c1ccc2c(c1)S(=O)(=O)CCC2 (single isomer, unassigned) [ASAP-0012336] as the molecule, how does the perc_recovery_b_to_a_mean read?
Its perc_recovery_b_to_a_mean is 66.7%.

Same assay, conditions: MDR1-MDCKII, recovery A to B, with inhibitor Verapamil

Which perc_recovery_a_to_b_inhibitor_mean does the source give for CC(C)[C@@H](Nc1ncnc2[nH]c(C(=O)N[C@H]3CCN(C)C3)cc12)c1ccc2c(c1)S(=O)(=O)CCC2 (single isomer, unassigned) [ASAP-0012336] here?
The perc_recovery_a_to_b_inhibitor_mean was 95.9%.

Same assay, conditions: MDR1-MDCKII, recovery B to A, with inhibitor Verapamil

For CC(C)[C@@H](Nc1ncnc2[nH]c(C(=O)N[C@H]3CCN(C)C3)cc12)c1ccc2c(c1)S(=O)(=O)CCC2 (single isomer, unassigned) [ASAP-0012336], which perc_recovery_b_to_a_inhibitor_mean is on record?
Its perc_recovery_b_to_a_inhibitor_mean is 77.9%.

Test system: iPSC pneumocytes
Assay: iPSC pneumocytes cytotoxicity
Format: cell-based
Conditions: not given
Source text: Supplement media-1.zip/Cytotoxicity.csv, table | column: cc10; cc50; perc_min_measured; perc_max_measured

What does the source list for CC(C)[C@@H](Nc1ncnc2[nH]c(C(=O)N[C@H]3CCN(C)C3)cc12)c1ccc2c(c1)S(=O)(=O)CCC2 (single isomer, unassigned) [ASAP-0012336]?
CC50: > 50 µM; cc10: > 50.0 µM

Same assay, conditions: highest measured response of the dose series

Which perc_max_measured does the source give for CC(C)[C@@H](Nc1ncnc2[nH]c(C(=O)N[C@H]3CCN(C)C3)cc12)c1ccc2c(c1)S(=O)(=O)CCC2 (single isomer, unassigned) [ASAP-0012336] here?
The perc_max_measured was 106.87%.

Same assay, conditions: lowest measured response of the dose series

Which perc_min_measured does the source give for CC(C)[C@@H](Nc1ncnc2[nH]c(C(=O)N[C@H]3CCN(C)C3)cc12)c1ccc2c(c1)S(=O)(=O)CCC2 (single isomer, unassigned) [ASAP-0012336] here?
The perc_min_measured was 91.721%.

Same assay, conditions: protocol iPSC pneumocytes cytotoxicity

Which CC50 does the source give for Cc1ncc(-c2cc3c(N[C@@H](c4ccc5c(c4)OCCO5)C(C)C)ncnc3[nH]2)cn1 [ASAP-0008490] here?
The CC50 was > 50 µM.

What about the cc10 of the same molecule?
Its cc10 is > 50.0 µM.

Same assay, conditions: protocol iPSC pneumocytes cytotoxicity; highest measured response of the dose series

Which perc_max_measured does the source give for Cc1ncc(-c2cc3c(N[C@@H](c4ccc5c(c4)OCCO5)C(C)C)ncnc3[nH]2)cn1 [ASAP-0008490] here?
Its perc_max_measured is 94.665%.

Same assay, conditions: protocol iPSC pneumocytes cytotoxicity; lowest measured response of the dose series

Which perc_min_measured does the source give for Cc1ncc(-c2cc3c(N[C@@H](c4ccc5c(c4)OCCO5)C(C)C)ncnc3[nH]2)cn1 [ASAP-0008490] here?
Its perc_min_measured is 63.131%.

Test system: HeLa-ACE2 cells
Assay: not given
Conditions: not given

Which CC50 does the source give for Cc1ncc(-c2cc3c(N[C@@H](c4ccc5c(c4)OCCO5)C(C)C)ncnc3[nH]2)cn1 [ASAP-0008490] here?
The CC50 was > 20 µM.

And the cc10?
The cc10 was > 20.0 µM.

Same assay, conditions: protocol HeLa-ACE2 cytotoxicity

Which CC50 does the source give for CC(C)[C@@H](Nc1ncnc2[nH]c(C(=O)N[C@H]3CCN(C)C3)cc12)c1ccc2c(c1)S(=O)(=O)CCC2 (single isomer, unassigned) [ASAP-0012336] here?
Its CC50 is > 20 µM.

And the cc10?
Its cc10 is > 20.0 µM.

Same assay, conditions: protocol HeLa-ACE2 cytotoxicity; highest measured response of the dose series

For CC(C)[C@@H](Nc1ncnc2[nH]c(C(=O)N[C@H]3CCN(C)C3)cc12)c1ccc2c(c1)S(=O)(=O)CCC2 (single isomer, unassigned) [ASAP-0012336], which perc_max_measured is on record?
The perc_max_measured was 90.418%.

Which perc_max_measured does the source give for Cc1ncc(-c2cc3c(N[C@@H](c4ccc5c(c4)OCCO5)C(C)C)ncnc3[nH]2)cn1 [ASAP-0008490] here?
The perc_max_measured was 110.055% and 97.495%.

Same assay, conditions: protocol HeLa-ACE2 cytotoxicity; lowest measured response of the dose series

For CC(C)[C@@H](Nc1ncnc2[nH]c(C(=O)N[C@H]3CCN(C)C3)cc12)c1ccc2c(c1)S(=O)(=O)CCC2 (single isomer, unassigned) [ASAP-0012336], which perc_min_measured is on record?
The perc_min_measured was 77.593%.

Which perc_min_measured does the source give for Cc1ncc(-c2cc3c(N[C@@H](c4ccc5c(c4)OCCO5)C(C)C)ncnc3[nH]2)cn1 [ASAP-0008490] here?
The perc_min_measured was 79.698% and 83.505%.

Test system: not listed separately
Assay: in vitro
Set-up: Cytotoxicity in iPSC-derived pneumocytes, CC50
Conditions: human, ipsc-derived pneumocytes; ASAP-0008327-001=ASAP-0008490-001; read-out: 50.0
Source text: Finally, we consider the hypothesis that interferon response triggers ADP-ribosylation, thus profiling the compounds in enhanced and physiologically relevant interferon environments could reveal detectable antiviral effects. […] Furthermore, HeLa-ACE2 cells, and all cancerous cell lines, display defective innate immune response ([1]). As such, we also assess our compound in a primary-like iPSC-derived pneumocyte system (Figure 7C), showing likewise a lack of antiviral activity in this physiologically relevant innate immunity system.

For Cc1ncc(-c2cc3c(N[C@@H](c4ccc5c(c4)OCCO5)C(C)C)ncnc3[nH]2)cn1 [ASAP-0008490], which CC50 is on record?
Its CC50 is > 50 µM.

Same assay, conditions: human, ipsc-derived pneumocytes; ASAP-0008327-001=ASAP-0012336-001; read-out: 50.0

Which CC50 does the source give for CC(C)[C@@H](Nc1ncnc2[nH]c(C(=O)N[C@H]3CCN(C)C3)cc12)c1ccc2c(c1)S(=O)(=O)CCC2 (single isomer, unassigned) [ASAP-0012336] here?
The CC50 was > 50 µM.

Test system: not listed separately
Assay: In vitro kinetic solubility
Conditions: In vitro kinetic solubility, ph 7.4

For CC(C)[C@@H](Nc1ncnc2[nH]c(C(=O)N[C@H]3CCN(C)C3)cc12)c1ccc2c(c1)S(=O)(=O)CCC2 (single isomer, unassigned) [ASAP-0012336], which solubility_mean is on record?
The solubility_mean was 392 µM (≈ 195 µg/mL).
